Results as given in patent publication US8022051B2, “Composition for protection and improvement of skin, or reinforcing skin barrier function comprising phosphatidylserine” (Doosan Corporation, priority 2004, dated 2011).

Tests used:
PPAR-γ = target: T1, PPAR-γ (Homo sapiens, UniProt P37231); test: PPAR-γ activation in HeLa cell line (luciferase reporter); assay type: cell-based; conditions: 10 and 50 μM; FIG. 7
T1 construct: expressed in transfected cells; host or cells: HeLa (KCLB No. 10002)
T1 sequence (P37231 1-505): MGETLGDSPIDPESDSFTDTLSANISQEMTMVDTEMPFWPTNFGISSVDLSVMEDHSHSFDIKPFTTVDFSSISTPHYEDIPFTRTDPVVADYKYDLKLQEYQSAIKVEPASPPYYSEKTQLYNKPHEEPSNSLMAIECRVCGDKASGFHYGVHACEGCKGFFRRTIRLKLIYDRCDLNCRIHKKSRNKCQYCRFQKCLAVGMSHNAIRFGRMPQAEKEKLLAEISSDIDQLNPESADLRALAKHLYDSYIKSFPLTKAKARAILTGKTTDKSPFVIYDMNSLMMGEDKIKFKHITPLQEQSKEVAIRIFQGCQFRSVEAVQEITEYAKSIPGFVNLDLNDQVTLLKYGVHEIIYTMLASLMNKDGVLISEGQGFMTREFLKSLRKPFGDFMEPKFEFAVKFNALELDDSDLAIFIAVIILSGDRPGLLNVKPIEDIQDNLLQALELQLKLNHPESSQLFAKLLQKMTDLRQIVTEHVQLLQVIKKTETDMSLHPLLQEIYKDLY
Experimental: In order to examine a PPAR-a activating effect of the phosphatidylserine of the invention, a following experiment was performed. At this time, it was examined activities for the PPAR-a and PPAR-γ retained.
First, a HeLa (Human epithelial carcinoma) (KCLB [Korean Cell Line Bank] No. 10002, Korea) was seeded to a 24-well plate in an amount of 2×10^4 cells/well and then cultured for a day. Next day, in order to perform a cell transfection, 200 ng of PPAR-a over-expression vector, 200 ng of PPRE (peculiar to PPAR-a)-luciferase reporter vector (Promega, USA), and 40 ng of renilla luciferase vector used as the control group in the cell (internal control, i.e., used to examine an transfection efficiency) were mixed in the OMEM (Gibco, USA) culture medium and subject to the transfection to the cell using the lipofectamin (Invitrogen, USA). After four hours, the culture medium was added to be 10% FBS and then cultured for one night. […] An activity of the luciferase was measured with a luminometer using a dual luciferase assay system (Promega, USA). Also in case of PPAR-γ, the same process was performed to measure the activity. At this time, in case of measuring the activity of PPAR-γ, 10 and 50 μM of phosphatidylserine and 50 μM of cyglitazone (Sigma, USA) as the positive control group were treated. […]

fibroblasts = test: Expression level of pro-collagen and MMP-1 in fibroblasts (western blot); assay type: cell-based; conditions: 20 μM, FIG. 10
Experimental: In order to examine a skin aging-suppressing efficacy of the phosphatidylserine of the invention, it was quantitatively measured the expression amounts of the pro-collagen and the matrix metalloproteinase (MMP). It was tried a protein-antibody reaction through an electrophoresis (western blot) as the quantitative method. The cultivation was performed in manners of irradiating the ultraviolet to the fibroblasts (a gift from Seoul National University, Korea) and otherwise. After that, it was treated with the phosphatidylserine (20 μM), the cell was collected to extract the protein parts. The extracted protein was dissolved in the sodium dodecyl sulfate (SDS) and then subject to the electrophoresis on the SDS-polyacrylamide gel. […] An amount of the protein was measured using the color.

For phosphatidylserine, the “activity of PPAR-γ (luciferase)” value (PPAR-γ) was “had no influence”, the “expression amount of MMP-1” value (fibroblasts) was “decreased” and the “expression amount of pro-collagen” value (fibroblasts; with ultraviolet irradiation and otherwise) was “increased”.
